Results as given in PubChem BioAssay (NCI).
“And” between values parts separate entries of the source, which are not always exact repeats. Identical values can stand only once.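 Each compound was tested at five concentrations against cells in 96-well plates for 48 hours. Abbreviation: GI50, concentration required for 50% inhibition of growth. TGI: concentration producing complete growth inhibition.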

Tested on: MDA-MB-468 breast
Test: growth of human tumour cells (NCI), 48 h

| SMILES | GI50 | TGI |
| --- | --- | --- |
| CC1=C(CN(O)C(N)=O)C2=C(C)C3(CC3)[C@](C)(O)C(=O)C2=C1 | 0.184 µM | 0.497 µM |
| CCCCCCNC(=O)Oc1ccc(/C(=C(/C)Cc2ccc(OC)cc2)c2ccc(OCCCN(C)C)cc2)cc1 | 16.7 µM | 32.6 µM |
| Cc1cc(Nc2nc(-c3cccnc3)nc3ccccc23)n[nH]1 | 1.78 µM | 21.4 µM |
| O=C(CN1CCN(c2cc3c(cc2F)c(=O)c(C(=O)O)cn3C2CC2)CC1)Nc1nc(-c2ccc(Cl)cc2)cs1 | 3.43 µM | 30.7 µM |
| CC1=CC(=O)C(C(C)C)=CC1=Nc1cc(Br)c(O)c(Br)c1 | 3.7 µM | 15.5 µM |
| CCC(c1ccc(OC)cc1)C(CC)c1ccc(O)c(CN2CCN(C)CC2)c1 (stereo not given) | 2.5 µM | 9.77 µM |
| Cc1ccc(C(NC(=O)c2ccccc2)c2ccc3cccnc3c2O)cc1 (stereo not given) | 0.219 µM | 0.788 µM |
| N#Cc1c(Br)n(C2OC(CO)C(O)C2O)c2ncnc(N)c12 (stereo not given) | 2.01 µM | 6.12 µM |
| COc1cc2c(cc1OC)C(Sc1ccc(SC)cc1)c1c(nc(N)c(C#N)c1N)O2 (stereo not given) | 1.03 µM | 2.62 µM |
| O=C(O)c1cn(C2CC2)c2cc(N3CCN(C(=O)Nc4nc(-c5ccccc5)cs4)CC3)c(F)cc2c1=O | 0.563 µM | 6.52 µM |
| Cn1nc(-c2ccc(Cl)cc2)nc2c(=O)n(C)c(=O)nc1-2 | 1.18 µM | 3.35 µM |
| C=C1C(=O)O[C@H]2[C@H]1CC/C(COC(=O)CCSCCC(=O)OC/C1=C/CC[C@@]3(C)O[C@H]3[C@H]3OC(=O)C(=C)[C@@H]3CC1)=C\CC[C@@]1(C)O[C@@H]21 | 0.358 µM | 1.5 µM |
| COc1ccccc1C1=C(Nc2ccccc2)C(=O)NC1=O | > 10.3 µM | > 25 µM |
| Brc1ccc2[nH]cc(-c3nc(-c4c[nH]c5ncccc45)cs3)c2c1 | 2.66 µM | 10.9 µM |
| NC(=S)n1c(=O)n(-c2cccc(C(F)(F)F)c2)c(=O)c2cc(-c3ccc(F)cc3F)ccc21 | 2.01 µM | 5.8 µM |
| CN(Cc1cccc(F)c1)c1ccc(CO)c(Cl)c1 | 0.0455 µM | 0.169 µM |
| O=[N+]([O-])c1ccc(Oc2nc(Nc3ccc(O[C@H]4CO[C@H]5[C@@H]4OC[C@@H]5O)c(Cl)c3)ncc2F)c(Cl)c1 | 1.47 µM | 4.66 µM |
| Oc1ccc(-c2nc3ccc4[nH]ncc4c3c3c2CCCC3)c(F)c1 | 4.06 µM | 20.3 µM |
| CCN1C(=O)N(CC)C2SC(N/N=C/c3ccccc3)=NC21 (stereo not given) | 0.293 µM | – |
| CCN(Cc1ccc(F)cc1)c1ccc(CO)c(C)c1 | 0.167 µM | 0.591 µM |
| CC1=C(/C=C/C(C)=C/C=C/C(C)=C/C=N/NC(=S)NC(=S)N/N=C/C=C(C)/C=C/C=C(C)/C=C/C2=C(C)CCCC2(C)C)C(C)(C)CCC1 | 3.25 µM and 2.84 µM | 10.5 µM and 10.2 µM |

| SMILES | GI50 | TGI |
| --- | --- | --- |
| COc1cc(NS(C)(=O)=O)ccc1Nc1c2ccccc2nc2ccccc12 | 469 nM [middle of 4 runs] | – |
| COc1cccc(-c2ccc3c(c2)C2CCN(Cc4ccccc4)C3C2)c1 (stereo not given) | 2.89 µM | 16.1 µM |
| Cc1ccc(/C=C2\CN(C(=O)C(Cl)Cl)C/C(=C\c3ccc(C)cc3)C2=O)cc1 | 0.195 µM | 0.427 µM |
| COc1ccc2c(C3(c4cn(C)c5cc(OC)ccc45)C(=O)Nc4ccc(Cl)cc43)cn(C)c2c1 | 2.54 µM | 9.08 µM |
| Cn1ccnc1C(=O)/C=C/c1ccc(CNC(=O)c2ccc(Cl)cc2)cc1 | 2.05 µM | 4.75 µM |
| CC(=O)N1N=C(c2ccc(Nc3ccnc4cc(Cl)ccc34)cc2)CC1c1ccc(Cl)cc1 (stereo not given) | 2.41 µM | > 100 µM |
| C=C(C)C(=O)O[C@H]1C[C@@]2(C)OC(=CC2=O)/C(CO)=C\[C@H]2OC(=O)C(=C)[C@H]12 | 0.0416 µM | 0.127 µM |
| COc1ccc(-c2ccc(-c3ccc(C(=N)N)nc3)s2)cc1Cl | 1.74 µM | 3.32 µM |
| COc1ccc(/C=c2\sc3n(c2=O)C2C(NN=3)N(C)C(=O)N2C)cc1 (stereo not given) | 0.231 µM | 0.783 µM |
| CCN1C(=O)CCCc2c1ccc(Nc1ncc(Cl)c(NC3[C@@H](C(N)=O)[C@@H]4C=C[C@H]3C4)n1)c2OC (stereo not given in full) | 1.13 µM | 4.8 µM |
| FC(F)(F)c1ccc(-c2cnc(-n3cc(COCCN4CCCCC4)nn3)nc2NC2CCCCCC2)cc1 | 3.54 µM | 7.37 µM |
| COc1ccc(C(c2ccc(OCCN(C)C)cc2)c2cc3ccccc3c3ccccc23)cc1 (stereo not given) | 1.58 µM | 3.15 µM |
| COc1cccc(/C=N/NC(=S)NC2CC3CCC2C3)c1O (stereo not given) | 11.4 µM | > 100 µM |
| Nc1nc(N)c(C=Nc2ccc(Br)cc2)c(Nc2ccc(Br)cc2)n1 | 11 µM | 23.3 µM |
| O=C1c2c(c3c4cc(O)ccc4oc3c3[nH]c4ccccc4c23)C(=O)N1O | 0.478 µM | 1.55 µM |
| CC(C)N1CCN(Cc2ccc3c(NNC(=O)c4ccccc4)nc4cc(F)ccc4n23)CC1 | 0.26 µM | 1.4 µM |
| COC1=C(C)C(=O)c2c(c(CCCl)c3n2CCC3O)C1=O (stereo not given) | 11.1 µM | 34.5 µM |
| COc1cccc(-c2nn(-c3ccccc3)cc2-c2ccnc(NCCNC(=O)Nc3cccc(C(F)(F)F)c3)c2)c1 | 1.7 µM | 3.43 µM |
| Cc1cc2cc3ccc(N(C)C)cc3nc2cc1N | 0.229 µM | 1.26 µM |
| CCOc1cc(Br)c(C(C)NC(=O)c2cccc(OC)c2)cc1OCC (stereo not given) | 3.46 µM | 54.7 µM |
